The text below walks through data of patent US20250353825A1, “CANNABICYCLOL DERIVATIVES AND PREPARATION METHODS THEREOF” (priority 2023, published 2025).

≈ marks a conversion by molar mass, not a printed value. Where two headings read alike, the source gives them in different places.

Assay type in all cases: cell-based
For series [1], the system named is GSC-3 (3#-GSC). Description: MTS cell viability assay, glioblastoma stem cells GSC-3 (3#-GSC). As to conditions: for IC50: GSC-3, Table 8, cancer stem cells, preferred compounds, read-out: IC50 3#-GSC; for selective anti-glioma stem cell viability: judged in words from preliminary viability screening against 3#-GSC, 293T and U251. Here is the method:
(§1) Primary viability screening: (1) the synthesized compounds 3a to 13d were respectively dissolved in DMSO to prepare a 40 μg/mL cannabicyclol and cannabicyclol derivative solutions.
(§2) (2) A control group: a 200 μL DMSO solvent.
(§3) (3) The solutions of compounds 3a to 13d were diluted in a twofold gradient to obtain cannabicyclol and cannabicyclol derivative solutions at concentrations of 40 μg/mL, 20 μg/mL, 10 μg/mL, 5 μg/mL, 2.5 μg/mL, 1.25 μg/mL, and 0.625 μg/mL, and 0.3125 μg/mL, respectively.
(§4) (4) Three glioblastoma stem cells (GSC-3, GSC-12, and GSC-18), three pancreatic cancer cell-derived stem cells (PANC-1-CSC, BXPC-3-CSC, and ASPC1-CSC), three liver cancer cell-derived stem cells (HepG2-CSC, MHCC97H-CSC, and SMMC7721-CSC), HEK-293T cells, 16 tumor cells (U251, U87, T98G, PANC1, BXPC3, ASPC1, HepG2, MHCC97H, SMMC7721, PC3, SKOV3, MDA-MB231, A549, HCT116, HEC-1B, MKN28), and differentiated glioblastoma stem cells (GSC-3diff and GSC-12diff) derived from GSC-3 and GSC-12 (all of the cells were provided by the Laboratory of Tumor Animal Model Preparation and Application Research, West China Hospital, Sichuan University) were inoculated into a 96-well plate at a concentration of 2×10^4 cells/well, and 100 μL of culture medium was then added to each well;
(§5) (5) 2) HEK-293T, GSC-3diff, GSC-12diff, and the 16 tumor cells were added with DMEM, 10% FBS, and 1% double antibody culture medium. Cancer stem cells (CSCs) were added with serum-free stem cell medium consisting of DMEM/F12, EGF (20 ng/mL), bFGF (20 ng/mL), B27 (1×), and 1% double antibody culture medium.
(§6) (6) Inoculated cells were put into a cell culture incubator for 24 hours, and after the cells were well adhered to the wall, the culture medium in the 96-well plate was discarded.
(§7) (7) 200 μL cannabicyclol and cannabicyclol derivatives solutions at different concentrations were added to the cultured cells.
(§8) (8) The experiment was set up with 3 replicates.
(§9) (9) The 96-well plate was placed in a cell culture incubator, and incubation was continued at 37° C. and 5% CO2 for 72 hours. Then, 100 μL of cannabicyclol and cannabicyclol derivative solution per well was discarded (100 μL of DMSO solvent was discarded for the control group), and 20 μL of LMTS (CellTiter AQueous Non-Radioactive Cell Proliferation Assay, #G3581) was mixed and continued to be placed in the cell incubator for 2 hours of incubation.
(§10) (10) The absorbance value at 490 nm was measured on an enzyme labeling apparatus, and the IC50 value was calculated.
(Tetrazolium assays rely on reduction of a dye to a coloured formazan, in cell work by metabolically active cells.)

The test system of series [2] is U251. Briefly: MTS cell viability assay, U251. As to conditions: for IC50: Homo sapiens, U-251, Table 8, tumor cells, preferred compounds, read-out: IC50 U251. Here is the method: as §1, §2, §3, §4, §5, §6, §7, §8, §9, §10
Series [3] can be described thus: MTS cell viability assay, HEK-293T (293T) normal cells. As to conditions: human. The procedure: as §1, §2, §3, §4, §5, §6, §7, §8, §9, §10
The subject of series [4] is HEK-293T. The description is as above. As to conditions: Homo sapiens, HEK-293T; Table 8, normal cells, preferred compounds; read-out: IC50 293T. The procedure: as §1, §2, §3, §4, §5, §6, §7, §8, §9, §10
Where [5] appears, read: primary viability screening, 72 hours, MTS, test concentration not stated.
Where [6] appears, read: HEK-293T (293T) normal cells, primary viability screening, 72 hours, MTS, test concentration not stated, read-out: Cell viability in 293T (%).

Take `CC12CCC3C1C(c1c(O)cc(-c4ccsc4)cc1O2)C3(C)C` (stereo not drawn) [Compound 3t]: the “Cell viability in 3#-GSC (%)” value in series [1] (72 h) is 50%. Also, the IC50 worked out at 3 µg/mL (≈ 9.17 µM) in series [1], 14 µg/mL (≈ 42.8 µM) in series [2] and 16.4 µg/mL (≈ 50.2 µM) in series [4]. Further, the “selective anti-glioma stem cell viability” value in series [1] is recorded as “weak selective anti-glioma stem cell viability”. Besides, the “Cell viability in U251 (%)” value in series [2] (human, 72 h) came out at 98%. Moreover, in series [3], the viability at 72 h is at least 100%.
For `CCCCCc1cc(OC(=O)C(C)CC)c2c(c1)OC1(C)CCC3C1C2C3(C)C` (stereo not drawn) [Compound 9a], the IC50 is 4.32 µg/mL (≈ 10.8 µM) in series [1], above 40 µg/mL in series [2] and above 40 µg/mL in series [4]. In addition, the “Cell viability in 3#-GSC (%)” value in series [1] (setting [5]) is reported as 52%. Moreover, the “Cell viability in U251 (%)” value in series [2] (setting [5]) is reported as at least 100%. The viability at 72 h in series [3] (setting [6]) is at least 100%.
Turning to `CCCCCc1cc(OC(=O)CC)c2c(c1)OC1(C)CCC3C1C2C3(C)C` (stereo not drawn) [Compound 9c], the IC50 in series [1] is 9.32 µg/mL (≈ 25.2 µM); in series [2] it was 24.7 µg/mL (≈ 66.7 µM); in series [4] it was above 40 µg/mL. For the same compound, in series [1], the “selective anti-glioma stem cell viability” value is “both the viability and selectivity were maintained”. Further, in series [1] (setting [5]), the “Cell viability in 3#-GSC (%)” value amounted to 28%. In addition, in series [2] (setting [5]), the “Cell viability in U251 (%)” value is at least 100%. Besides, the viability at 72 h in series [3] (setting [6]) is at least 100%.
Consider `CCCCCc1cc(OC(=O)/C=C/c2ccc(OC)cc2)c2c(c1)OC1(C)CCC3C1C2C3(C)C` (stereo not drawn) [Compound 9h], for which the “Cell viability in 3#-GSC (%)” value in series [1] (setting [5]) amounted to 90%. The “Cell viability in U251 (%)” value in series [2] (setting [5]) is at least 100%. Besides, the viability at 72 h in series [3] (setting [6]) was at least 100%.
On the same counts, the results for `CCCCCc1cc(OC(=O)c2ccncc2)c2c(c1)OC1(C)CCC3C1C2C3(C)C` (stereo not drawn) [Compound 9i] are 91%, 88% and 91%.
The matching figures for `CCCCCc1cc(OC(=O)c2ccco2)c2c(c1)OC1(C)CCC3C1C2C3(C)C` (stereo not drawn) [Compound 9j]: at least 100%, at least 100% and at least 100%.
Regarding `CCCCCc1cc(OC(=O)CN2CCOCC2)c2c(c1)OC1(C)CCC3C1C2C3(C)C` (stereo not drawn) [Compound 9k], the values for the IC50 in series [1], in series [2] and in series [4] were 5.37 µg/mL (≈ 12.2 µM), above 40 µg/mL and above 40 µg/mL, respectively. Moreover, the “Cell viability in 3#-GSC (%)” value in series [1] (setting [5]) is reported as 43%. Besides, the “Cell viability in U251 (%)” value in series [2] (setting [5]) is at least 100%. In addition, in series [3] (setting [6]), the viability at 72 h is at least 100%.
In the case of `CCCCCc1cc(OC(=O)CCN2CCOCC2)c2c(c1)OC1(C)CCC3C1C2C3(C)C` (stereo not drawn) [Compound 9l], the IC50 in series [1] is 2.9 µg/mL (≈ 6.37 µM); in series [2] it was 24.7 µg/mL (≈ 54.3 µM); in series [4], above 40 µg/mL. Besides, the “Cell viability in 3#-GSC (%)” value in series [1] (setting [5]) is on record as 32%. For the same compound, in series [2] (setting [5]), the “Cell viability in U251 (%)” value is listed as 90%. The viability at 72 h in series [3] (setting [6]) was determined as 93%.
As to `CCCCCc1cc(OC(=O)CN(C)C)c2c(c1)OC1(C)CCC3C1C2C3(C)C` (stereo not drawn) [Compound 9m], the IC50 in series [1] is 5.44 µg/mL (≈ 13.6 µM); in series [2] it was above 40 µg/mL; in series [4], 22.9 µg/mL (≈ 57.2 µM). Besides, the “Cell viability in 3#-GSC (%)” value in series [1] (setting [5]) was determined as 42%. In series [2] (setting [5]), the “Cell viability in U251 (%)” value is at least 100%. Moreover, the viability at 72 h in series [3] (setting [6]) is at least 100%.
Regarding `CCCCCc1cc(OC(=O)CCN(C)C)c2c(c1)OC1(C)CCC3C1C2C3(C)C` (stereo not drawn) [Compound 9n], the IC50 came out at 7.79 µg/mL (≈ 18.8 µM) in series [1], 33.4 µg/mL (≈ 80.9 µM) in series [2] and 35.2 µg/mL (≈ 85 µM) in series [4]. For the same compound, in series [1] (setting [5]), the “Cell viability in 3#-GSC (%)” value turned out to be 32%. Also, the “Cell viability in U251 (%)” value in series [2] (setting [5]) amounted to 89%. The viability at 72 h in series [3] (setting [6]) is at least 100%.
As to `CCCCCc1cc(OC(=O)CCCC[P+](c2ccccc2)(c2ccccc2)c2ccccc2)c2c(c1)OC1(C)CCC3C1C2C3(C)C` (stereo not drawn) [Compound 9s], in series [1] (72 h), the “Cell viability in 3#-GSC (%)” value is given as 40%. For the same compound, the “Cell viability in U251 (%)” value in series [2] (human, 72 h) turned out to be 17%. The viability at 72 h in series [3] is 21%.
The matching figures for `CCCCCc1cc(OC(=O)CCCCOc2cc(=O)oc3ccccc23)c2c(c1)OC1(C)CCC3C1C2C3(C)C` (stereo not drawn) [Compound 9t]: at least 100%, at least 100% and at least 100%.
For the compound `CCCCCc1cc2c(c(-c3ccccc3)c1)C1C3C(CCC3(C)O2)C1(C)C` (stereo not drawn) [Compound 13b], in series [1] (72 h), the “Cell viability in 3#-GSC (%)” value worked out at 50%. Further, the IC50 in series [1] is 4.73 µg/mL (≈ 12.6 µM); in series [2], above 40 µg/mL; in series [4], above 40 µg/mL. Besides, in series [1], the “selective anti-glioma stem cell viability” value was “both the viability and selectivity were significantly reduced”. Moreover, in series [2] (human, 72 h), the “Cell viability in U251 (%)” value was at least 100%. In series [3], the viability at 72 h was determined as 75%.

For orientation: IC50 means the concentration that inhibits the measured activity by half. As a reminder, the viability is the share of living cells, or the viability signal relative to a control.
